# Measurements reported in the supplement of paper PMC8612539.
# Test system: Escherichia coli
# Assay: minimum inhibitory concentration (MIC)
# Method: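 Broth microdilution MIC (Sensititre BOPO7F bovine plate, CLSI methods) of 19 antimicrobials against field isolates of P. multocida, M. haemolytica, H. somni (deep nasopharyngeal swabs) and E. coli, Enterococcus spp. (rectal swabs) from weaned dairy heifers. Incubation 16-24 h at 35 C. MIC is the lowest concentration preventing visible growth. Values with <= or > lie at the tested range limits. Trimethoprim-sulfamethoxazole is given as the trimethoprim component of a 1:19 mixture.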
structure (smiles),measurement,setting,value
CCN1CCN(c2cc3c(cc2F)c(=O)c(C(=O)O)cn3C2CC2)CC1 [Enrofloxacin],minimum inhibitory concentration,isolate (source animal id): 8,≤ 0.12 µg/mL
same,minimum inhibitory concentration,isolate (source animal id): 9,> 2 µg/mL
same,minimum inhibitory concentration,isolate (source animal id): 10,≤ 0.12 µg/mL
same,minimum inhibitory concentration,isolate (source animal id): 11,≤ 0.12 µg/mL
same,minimum inhibitory concentration,isolate (source animal id): 12,> 2 µg/mL
same,minimum inhibitory concentration,isolate (source animal id): 13,≤ 0.12 µg/mL
same,minimum inhibitory concentration,isolate (source animal id): 14,0.5 µg/mL
same,minimum inhibitory concentration,isolate (source animal id): 15,≤ 0.12 µg/mL
same,minimum inhibitory concentration,isolate (source animal id): 16,≤ 0.12 µg/mL
same,minimum inhibitory concentration,isolate (source animal id): 98,≤ 0.12 µg/mL
same,minimum inhibitory concentration,isolate (source animal id): 99,≤ 0.12 µg/mL
same,minimum inhibitory concentration,isolate (source animal id): 100,≤ 0.12 µg/mL
same,minimum inhibitory concentration,isolate (source animal id): 101,≤ 0.12 µg/mL
same,minimum inhibitory concentration,isolate (source animal id): 102,≤ 0.12 µg/mL
same,minimum inhibitory concentration,isolate (source animal id): 103,≤ 0.12 µg/mL
same,minimum inhibitory concentration,isolate (source animal id): 104,≤ 0.12 µg/mL
same,minimum inhibitory concentration,isolate (source animal id): 105,≤ 0.12 µg/mL
same,minimum inhibitory concentration,isolate (source animal id): 106,> 2 µg/mL
same,minimum inhibitory concentration,isolate (source animal id): 107,≤ 0.12 µg/mL
same,minimum inhibitory concentration,isolate (source animal id): 108,≤ 0.12 µg/mL
same,minimum inhibitory concentration,isolate (source animal id): 109,≤ 0.12 µg/mL
same,minimum inhibitory concentration,isolate (source animal id): 110,≤ 0.12 µg/mL
same,minimum inhibitory concentration,isolate (source animal id): 111,> 2 µg/mL
same,minimum inhibitory concentration,isolate (source animal id): 112,≤ 0.12 µg/mL
same,minimum inhibitory concentration,isolate (source animal id): 113,1 µg/mL
same,minimum inhibitory concentration,isolate (source animal id): 114,≤ 0.12 µg/mL
same,minimum inhibitory concentration,isolate (source animal id): 115,1 µg/mL
same,minimum inhibitory concentration,isolate (source animal id): 116,1 µg/mL
same,minimum inhibitory concentration,isolate (source animal id): 117,≤ 0.12 µg/mL
same,minimum inhibitory concentration,isolate (source animal id): 118,0.5 µg/mL
same,minimum inhibitory concentration,isolate (source animal id): 119,> 2 µg/mL
same,minimum inhibitory concentration,isolate (source animal id): 120,1 µg/mL
same,minimum inhibitory concentration,isolate (source animal id): 121,≤ 0.12 µg/mL
same,minimum inhibitory concentration,isolate (source animal id): 122,≤ 0.12 µg/mL
same,minimum inhibitory concentration,isolate (source animal id): 123,≤ 0.12 µg/mL
same,minimum inhibitory concentration,isolate (source animal id): 124,> 2 µg/mL
same,minimum inhibitory concentration,isolate (source animal id): 125,≤ 0.12 µg/mL
same,minimum inhibitory concentration,isolate (source animal id): 126,> 2 µg/mL
same,minimum inhibitory concentration,isolate (source animal id): 127,≤ 0.12 µg/mL
same,minimum inhibitory concentration,isolate (source animal id): 128,≤ 0.12 µg/mL
same,minimum inhibitory concentration,isolate (source animal id): 129,1 µg/mL
same,minimum inhibitory concentration,isolate (source animal id): 130,≤ 0.12 µg/mL
same,minimum inhibitory concentration,isolate (source animal id): 131,2 µg/mL
same,minimum inhibitory concentration,isolate (source animal id): 132,0.5 µg/mL
same,minimum inhibitory concentration,isolate (source animal id): 133,≤ 0.12 µg/mL
same,minimum inhibitory concentration,isolate (source animal id): 134,≤ 0.12 µg/mL
same,minimum inhibitory concentration,isolate (source animal id): 135,≤ 0.12 µg/mL
same,minimum inhibitory concentration,isolate (source animal id): 136,≤ 0.12 µg/mL
same,minimum inhibitory concentration,isolate (source animal id): 137,0.5 µg/mL
same,minimum inhibitory concentration,isolate (source animal id): 138,> 2 µg/mL
same,minimum inhibitory concentration,isolate (source animal id): 139,0.25 µg/mL
same,minimum inhibitory concentration,isolate (source animal id): 140,≤ 0.12 µg/mL
same,minimum inhibitory concentration,isolate (source animal id): 141,≤ 0.12 µg/mL
same,minimum inhibitory concentration,isolate (source animal id): 142,≤ 0.12 µg/mL
same,minimum inhibitory concentration,isolate (source animal id): 143,1 µg/mL
same,minimum inhibitory concentration,isolate (source animal id): 144,> 2 µg/mL
same,minimum inhibitory concentration,isolate (source animal id): 145,≤ 0.12 µg/mL
same,minimum inhibitory concentration,isolate (source animal id): 146,0.5 µg/mL
same,minimum inhibitory concentration,isolate (source animal id): 147,> 2 µg/mL
same,minimum inhibitory concentration,isolate (source animal id): 148,0.25 µg/mL
same,minimum inhibitory concentration,isolate (source animal id): 149,≤ 0.12 µg/mL
same,minimum inhibitory concentration,isolate (source animal id): 150,≤ 0.12 µg/mL
same,minimum inhibitory concentration,isolate (source animal id): 151,≤ 0.12 µg/mL
same,minimum inhibitory concentration,isolate (source animal id): 152,≤ 0.12 µg/mL
same,minimum inhibitory concentration,isolate (source animal id): 153,≤ 0.12 µg/mL
same,minimum inhibitory concentration,isolate (source animal id): 154,0.5 µg/mL
same,minimum inhibitory concentration,isolate (source animal id): 155,≤ 0.12 µg/mL
same,minimum inhibitory concentration,isolate (source animal id): 156,1 µg/mL
same,minimum inhibitory concentration,isolate (source animal id): 157,≤ 0.12 µg/mL
same,minimum inhibitory concentration,isolate (source animal id): 158,≤ 0.12 µg/mL
same,minimum inhibitory concentration,isolate (source animal id): 159,≤ 0.12 µg/mL
same,minimum inhibitory concentration,isolate (source animal id): 160,≤ 0.12 µg/mL
same,minimum inhibitory concentration,isolate (source animal id): 161,≤ 0.12 µg/mL
same,minimum inhibitory concentration,isolate (source animal id): 162,> 2 µg/mL
same,minimum inhibitory concentration,isolate (source animal id): 163,≤ 0.12 µg/mL
same,minimum inhibitory concentration,isolate (source animal id): 164,≤ 0.12 µg/mL
same,minimum inhibitory concentration,isolate (source animal id): 165,≤ 0.12 µg/mL
same,minimum inhibitory concentration,isolate (source animal id): 166,≤ 0.12 µg/mL
same,minimum inhibitory concentration,isolate (source animal id): 167,≤ 0.12 µg/mL
same,minimum inhibitory concentration,isolate (source animal id): 168,≤ 0.12 µg/mL
same,minimum inhibitory concentration,isolate (source animal id): 169,≤ 0.12 µg/mL
same,minimum inhibitory concentration,isolate (source animal id): 170,≤ 0.12 µg/mL
same,minimum inhibitory concentration,isolate (source animal id): 171,≤ 0.12 µg/mL
same,minimum inhibitory concentration,isolate (source animal id): 172,≤ 0.12 µg/mL
same,minimum inhibitory concentration,isolate (source animal id): 173,≤ 0.12 µg/mL
same,minimum inhibitory concentration,isolate (source animal id): 174,≤ 0.12 µg/mL
same,minimum inhibitory concentration,isolate (source animal id): 175,≤ 0.12 µg/mL
same,minimum inhibitory concentration,isolate (source animal id): 176,≤ 0.12 µg/mL
same,minimum inhibitory concentration,isolate (source animal id): 177,≤ 0.12 µg/mL
same,minimum inhibitory concentration,isolate (source animal id): 178,≤ 0.12 µg/mL
same,minimum inhibitory concentration,isolate (source animal id): 179,≤ 0.12 µg/mL
same,minimum inhibitory concentration,isolate (source animal id): 180,≤ 0.12 µg/mL
same,minimum inhibitory concentration,isolate (source animal id): 181,≤ 0.12 µg/mL
same,minimum inhibitory concentration,isolate (source animal id): 182,≤ 0.12 µg/mL
same,minimum inhibitory concentration,isolate (source animal id): 183,≤ 0.12 µg/mL
same,minimum inhibitory concentration,isolate (source animal id): 184,≤ 0.12 µg/mL
same,minimum inhibitory concentration,isolate (source animal id): 185,≤ 0.12 µg/mL
same,minimum inhibitory concentration,isolate (source animal id): 186,≤ 0.12 µg/mL
same,minimum inhibitory concentration,isolate (source animal id): 187,≤ 0.12 µg/mL
same,minimum inhibitory concentration,isolate (source animal id): 188,2 µg/mL
